Legend:
Test in all cases: scanMAX kinase assay panel
Format in all cases: binding
EGFR(L858R) = target: T1, EGFR(L858R) (Homo sapiens, UniProt P00533, L858R); conditions: read-out: control percentage (% control)
T1 construct: purchased DiscoverX scanMAX kinase assay panel
How it was run: (§1)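 Compound was applied as a 1 μM solution in DMSO across the scanMAX kinase panel. Activity is reported as % control, scaled between a positive control (0%) and the DMSO negative control (100%).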

FLT3(D835H) = target: T2, FLT3(D835H) (Homo sapiens, UniProt P36888, D835H); conditions: read-out: control percentage (% control)
T2 construct: purchased DiscoverX scanMAX kinase assay panel
How it was run: as §1

FLT3(ITD, D835V) = conditions: 1 μM
How it was run: as §1

T1 sequence (P00533 25-1210 L858R): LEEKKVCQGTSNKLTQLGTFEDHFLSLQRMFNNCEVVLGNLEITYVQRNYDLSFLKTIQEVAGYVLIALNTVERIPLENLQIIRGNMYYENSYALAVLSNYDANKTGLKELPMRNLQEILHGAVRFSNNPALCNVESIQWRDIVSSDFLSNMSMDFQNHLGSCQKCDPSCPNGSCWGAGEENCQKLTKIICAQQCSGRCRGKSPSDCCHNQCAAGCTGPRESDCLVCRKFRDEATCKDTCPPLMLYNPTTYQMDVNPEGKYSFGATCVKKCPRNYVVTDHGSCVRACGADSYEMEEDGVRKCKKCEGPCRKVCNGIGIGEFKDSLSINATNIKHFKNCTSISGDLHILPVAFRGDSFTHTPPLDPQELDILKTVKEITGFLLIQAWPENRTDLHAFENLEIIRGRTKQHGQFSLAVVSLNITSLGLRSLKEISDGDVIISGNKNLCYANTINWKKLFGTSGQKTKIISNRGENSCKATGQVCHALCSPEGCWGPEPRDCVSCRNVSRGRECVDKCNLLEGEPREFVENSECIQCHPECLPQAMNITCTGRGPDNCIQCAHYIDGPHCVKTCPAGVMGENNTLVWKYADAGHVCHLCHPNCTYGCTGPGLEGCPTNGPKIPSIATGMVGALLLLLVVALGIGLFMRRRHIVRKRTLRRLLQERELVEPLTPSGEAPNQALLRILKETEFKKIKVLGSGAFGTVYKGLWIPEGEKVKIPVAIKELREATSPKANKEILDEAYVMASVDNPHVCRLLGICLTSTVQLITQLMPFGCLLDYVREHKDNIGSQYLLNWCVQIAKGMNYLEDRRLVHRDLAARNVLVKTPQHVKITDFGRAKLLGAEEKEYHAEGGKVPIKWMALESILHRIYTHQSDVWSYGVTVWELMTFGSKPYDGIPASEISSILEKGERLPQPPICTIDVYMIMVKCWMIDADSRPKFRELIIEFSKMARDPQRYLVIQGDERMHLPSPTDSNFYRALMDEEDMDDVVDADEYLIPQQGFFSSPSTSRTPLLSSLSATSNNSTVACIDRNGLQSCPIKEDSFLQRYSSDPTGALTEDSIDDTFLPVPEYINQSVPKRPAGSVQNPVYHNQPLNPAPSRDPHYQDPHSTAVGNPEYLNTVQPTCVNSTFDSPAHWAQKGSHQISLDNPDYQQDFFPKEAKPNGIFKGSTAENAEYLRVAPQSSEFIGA

With `CN1CCN(c2ccc(Nc3nc(N4OCC[C@H]4c4ccccc4)c4cc[nH]c4n3)cc2)CC1` [Example 74, (S)-N-(4-(4-methylpiperazin-1-yl)phenyl)-4-(3-phenylisoxazolidin-2-yl)-7H-pyrrolo[2,3-d]pyrimidin-2-amine] the remaining binding at 1 µM (EGFR(L858R)) was 20%, the remaining binding at 1 µM (FLT3(D835H)) was 21% and the “control percentage (% control)” value (FLT3(ITD, D835V)) was 0%.

Reference: US20220242870A1, “HETEROCYCLE-FUSED PYRIMIDINE DERIVATIVE AND USE THEREOF” (VORONOI Inc., priority 2019, published 2022)
